Test results taken from US20260191835A1, “COMBINATIONS COMPRISING A MENIN-MLL INHIBITOR AND AT LEAST ONE OTHER THERAPEUTIC AGENT” (JANSSEN PHARMACEUTICA NV, priority 2022, published 2026).

Assays:
MEIS1 mRNA expression = MEIS1 mRNA expression assay (Quantigene Singleplex) in MOLM14; format: cell-based; conditions: Homo sapiens, MOLM-14, 48 h, MOLM14 cells, 48 hours with compound
Description: 2b) MEIS1 mRNA Expression Assay
MEIS1 mRNA expression upon treatment of compound was examined by Quantigene Singleplex assay (Thermo Fisher Scientific). This technology allows for direct quantification of mRNA targets using probes hybridizing to defined target sequences of interest and the signal is detected using a Multimode plate reader Envision (PerkinElmer). The MOLM14 cell line was used for this experiment. Cells were plated in 96-well plates at 3,750 cells/well in the presence of increasing concentrations of compounds. After incubation of 48 hours with compounds, cells were lysed in lysis buffer and incubated for 45 minutes at 55° C. Cell lysates were mixed with human MEIS1 specific capture probe or human RPL28 (Ribosomal Protein L28) specific probe as a normalization control, as well as blocking probes. Cell lysates were then transferred to the custom assay hybridization plate (Thermo Fisher Scientific) and incubated for 18 to 22 hours at 55° C. Subsequently, plates were washed to remove unbound materials followed by sequential addition of preamplifiers, amplifiers, and label probe. Signals (=gene counts) were measured with a Multimode plate reader Envision. IC50s were calculated by dose-response modelling using appropriate software. For all non-housekeeper genes response equal counts corrected for background and relative expression. For each sample, each test gene signal (background subtracted) was divided by the normalization gene signal (RPL28: background subtracted). Fold changes were calculated by dividing the normalized values for the treated samples by the normalized values for the DMSO treated sample. Fold changes of each target gene were used for the calculation of IC50s.

MOLM14 cells = experiment: Proliferation assay (spheroid assay), MOLM14; format: cell-based; conditions: Homo sapiens, MOLM-14, 192 h, 8 days; read-out: spheroid assay_MOLM14 IC50
Description: The anti-proliferative effect of menin/MLL protein/protein interaction inhibitor test compounds was assessed in human leukemia cell lines. The cell line MOLM14 harbors a MLL translocation and expresses the MLL fusion protein MLL-AF9, respectively, as well as the wildtype protein from the second allele. OCI-AML3 cells that carry the NPM1c gene mutation were also tested. […] KO-52 was used as a control cell line containing two MLL (KMT2A) wildtype alleles in order to exclude compounds that display general cytotoxic effects.
MOLM14 cells were cultured in RPMI-1640 (Sigma Aldrich) supplemented with 10% heat-inactivated fetal bovine serum (HyClone), 2 mM L-glutamine (Sigma Aldrich) and 50 μg/ml gentamycin (Gibco). KO-52 and OCI-AML3 cell lines were propagated in alpha-MEM (Sigma Aldrich) supplemented with 20% heat-inactivated fetal bovine serum (HyClone), 2 mM L-glutamine (Sigma Aldrich) and 50 µg/ml gentamycin (Gibco).
In order to assess the anti-proliferative effects, 200 MOLM14 cells, […] or 300 KO-52 cells were seeded in 200 μl media per well in 96-well round bottom, ultra-low attachment plates (Costar, catalogue number 7007). Cell seeding numbers were chosen based on growth curves to ensure linear growth throughout the experiment. Test compounds were added at different concentrations and the DMSO content was normalized to 0.3%. Cells were incubated for 8 days at 37° C. and 5% CO2. Spheroid like growth was measured in real-time by live-cell imaging (IncuCyteZOOM, Essenbio, 4× objective) acquiring images at day 8. Confluence (%) as a measure of spheroid size was determined using an integrated analysis tool.
In order to determine the effect of the test compounds over time, the confluence in each well as a measure of spheroid size, was calculated. Confluence of the highest dose of a reference compound was used as baseline for the LC (Low control) and the confluence of DMSO treated cells was used as 0% cytotoxicity (High Control, HC).
Absolute IC50 values were calculated as percent change in confluence as follows: • LC=Low Control: cells treated with e.g. […] of the cytotoxic agent staurosporin, or e.g. cells treated with a high concentration of an alternative reference compound • HC=High Control: Mean confluence (%) (DMSO treated cells)
GraphPad Prism (version 7.00) was used to calculate the IC50. Dose-response equation was used for the plot of % Effect vs Log 10 compound concentration with a variable slope and fixing the maximum to 100% and the minimum to 0%.

[1] = target: T1, Menin/MLL (terbium chelate-labeled menin, FITC-MBM1 peptide) (Homo sapiens, UniProt O00255, T541A); experiment: Menin/MLL homogenous time-resolved fluorescence (HTRF) assay; format: binding; conditions: 30 min incubation of test compound with terbium chelate-labeled menin
T1 construct: Menin (a.a 1-610-6×his tag)
T1 sequence (O00255 with tags, fused parts or gaps T541A): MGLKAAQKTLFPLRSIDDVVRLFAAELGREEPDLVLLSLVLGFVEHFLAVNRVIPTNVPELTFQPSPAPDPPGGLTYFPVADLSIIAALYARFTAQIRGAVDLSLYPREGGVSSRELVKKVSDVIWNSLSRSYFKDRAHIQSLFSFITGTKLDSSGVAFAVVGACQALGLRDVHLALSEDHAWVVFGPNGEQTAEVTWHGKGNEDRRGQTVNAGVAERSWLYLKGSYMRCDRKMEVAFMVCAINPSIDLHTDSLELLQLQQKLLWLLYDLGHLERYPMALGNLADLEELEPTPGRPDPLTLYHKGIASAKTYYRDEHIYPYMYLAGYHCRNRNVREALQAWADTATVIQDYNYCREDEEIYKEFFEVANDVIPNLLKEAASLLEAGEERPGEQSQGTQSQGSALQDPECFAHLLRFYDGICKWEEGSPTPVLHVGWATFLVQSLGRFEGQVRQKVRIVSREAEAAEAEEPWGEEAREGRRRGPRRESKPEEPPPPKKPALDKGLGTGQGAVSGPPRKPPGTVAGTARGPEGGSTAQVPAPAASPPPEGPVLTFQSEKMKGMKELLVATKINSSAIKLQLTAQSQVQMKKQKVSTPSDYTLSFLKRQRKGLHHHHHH
Description: 1) Menin/MLL Homogenous Time-Resolved Fluorescence (HTRF) Assay
To an untreated, white 384-well microtiter plate was added 40 nL 200× test compound in DMSO and 4 μL 2× terbium chelate-labeled menin (vide infra for preparation) in assay buffer (40 mM Tris·HCl, pH 7.5, 50 mM NaCl, 1 mM DTT (dithiothreitol) and 0.05% Pluronic F-127). After incubation of test compound and terbium chelate-labeled menin for 30 min at ambient temperature, 4 μL 2×FITC-MBM1 peptide (FITC-O-alanine-[…]-NH2) (“FITC” means fluorescein isothiocyanate) in assay buffer was added, the microtiter plate centrifuged at 1000 rpm for 1 min and the assay mixtures incubated for 15 min at ambient temperature. The relative amount of menin-FITC-MBM1 complex present in an assay mixture is determined by measuring the homogenous time-resolved fluorescence (HTRF) of the terbium/FITC donor/acceptor fluorphore pair using an EnVision microplate reader (ex. 337 nm/terbium em. 490 nm/FITC em. 520 nm) at ambient temperature. The degree of fluorescence resonance energy transfer (the HTRF value) is expressed as the ratio of the fluorescence emission intensities of the FITC and terbium fluorophores (F^em 520 nm/F^em 490 nm). […]
Compound potencies were determined by first calculating % inhibition at each compound concentration according to equation 1: […]

[2] = Dynamic vapor sorption (DVS) moisture sorption analysis; format: physicochemical
Description: Dynamic Vapor Sorption (DVS) The moisture sorption analysis (DVS) was performed using a ProUmid GmbH & Co. KG Vsorp Enhanced dynamic vapor sorption apparatus. The moisture profile was evaluated by monitoring vapor adsorption/desorption over the range of 0 to 90% relative humidity at 25° C. The sample weight equilibrium criteria were set at 0.01% change in 45 min with minimum and maximum time of acclimation at 50 min and 120 min, respectively. The moisture profile consisted of 2 cycles of vapor adsorption/desorption.

[3] = common ambient RH of 40% to 75%

Row | IC50 (MEIS1 mRNA expression) [nM] | IC50 (MOLM14 cells) [nM] | SMILES | further results
1 | 7 | 41 | CNC(=O)N1CCC(CN2CC[C@H](Cc3cn(-c4ccc(F)cc4C(=O)N(C)C(C)C)c4cncc(C)c34)C2)CC1 (single isomer, unassigned) [Compound 101] | –
2 | 7 | 5 | COCC(=O)N1CCC(C(C)N2CCC(Cc3cn(-c4ccc(F)cc4C(=O)N(C)C(C)C)c4cncc(C)c34)C2)CC1 (single isomer, unassigned) [Compound 117a] | –
3 | – | – | CC(=O)N1CC[C@@H](N2CC(Cc3cn(-c4ccc(F)cc4C(=O)N(C)C(C)C)c4cncc(C)c34)C2)C[C@H]1C (single isomer, unassigned) [Compound 292a] | IC50 [1]: 0.132 nM
4 | 365 | – | CC(=O)N1C[C@H]2CC(N3CC(Cc4cn(-c5ccc(F)cc5C(=O)N(C)C(C)C)c5cncc(C)c45)C3)C[C@H]2C1 (single isomer, unassigned) [Compound 294a] | IC50 [1]: 0.237 nM
5 | – | – | CC(=O)N1CCC(CN2CC[C@@H](Cc3cn(-c4ccc(F)cc4C(=O)N(C)C(C)C)c4cncc(C)c34)C2)CC1.Cl [Compound 51a] | solid-state form stability after the DVS test (XRPD) ([2]; 2 cycles of vapor adsorption/desorption): No indication of a solid-state form change was observed; total moisture mass at equilibrium [2, 3]: 8.5-9.5%; water content at equilibrium [2, 3]: around 3 equivalents of water; hygroscopicity (DVS change in mass) ([2]; crystalline HCl salt Form, 0 to 90% relative humidity at 25° C.): hygroscopic; moisture adsorbed and desorbed, by mass on average ([2]; humidity range of 20-90% RH, 25° C., slowly and reversibly): up to 2.5%
6 | 187 | 42 | CC(=O)N1CCC(N2CC[C@H](Cc3cn(-c4ccc(F)cc4C(=O)N(C)C(C)C)c4cncc(C)c34)C2)CC1 [Compound 156] | –
7 | 438 | – | Cc1cncc2c1c(CC1CN(CC3CCNC(=O)C3)C1)cn2-c1ccc(F)cc1C(=O)N(C)C(C)C (stereo not shown) [Compound 196] | –
8 | 153 | – | CC(=O)N1CC2CC(N3CC(Cc4cn(-c5ccc(F)cc5C(=O)N(C)C(C)C)c5cncc(C)c45)C3)CC2C1 (stereo not shown) [Compound 294b] | –
